Assay results: US11286226B2, “Polycyclic carbogenic molecules and uses thereof as anti-cancer agents” (Northwestern University, priority 2017, dated 2022)
Where two headings read alike, the source gives them in different places.

Legend:
[1] = tested on: HT29 (colon); experiment: Cell viability at 1 mM (CellTiter-GLO), HT29; format: cell-based; details: Homo sapiens, read-out: Percent Cell Viability of Treated Cell Lines at 1.0 mM, HT29
Method: (§1) Cell lines PC-3, HT29, Hela, and MDA-MB-231 were cultured in RPMI1640 with 10% FBS media. Cell line MDA-MB-231-LM24 was cultured in DMEM with 400 ug/mL geneticin.
(§2) PC-3, HT29, Hela, and MDA-MB-231, and MDA-MB-231-LM24 cells were plated in […] at a density of 20,000 cells per well (based on NCI recommendation for adherent cells) in 90 μL volume of 5% FBS RPMI1640 complete media with 50 μg/mL gentamicin and incubated at 37° C. overnight. Each compound was diluted in RPMI1640 complete media supplemented with 5% FBS and 50 μg/mL of gentamycin, and 10 μL of this solution was added to each well to give a final concentration of 1 mM (1% overall DMSO, N=4 wells).
(§3) Cells treated with Doxorubicin with 1% overall DMSO were used as a positive control, and cells media containing 1% DMSO were used as a negative control.
(§4) 48 hours following treatment, cell proliferation was evaluated using the CellTiter-GLO Luminescent Cell Viability Assay (Promega, Madison, Wis.). Plates were allowed to equilibrate to room temperature for 20 minutes, and 100 μL of CellTiter-GLO reagent was added to all wells. The plates were shaken for 2 minutes and incubated at room temperature for 10 minutes. Luminescence was measured using a Syngergy H1-M microplate reader (BioTek Instruments, Inc.).

[2] = tested on: PC-3 (prostate); experiment: Cell viability at 1 mM (CellTiter-GLO), PC-3; format: cell-based; details: Homo sapiens, 48 h, read-out: Percent Cell Viability of Treated Cell Lines at 1.0 mM, PC-3
Method: as §1, §2, §3, §4

[3] = tested on: HeLa (cervix); experiment: Cell viability at 1 mM (CellTiter-GLO), HeLa; format: cell-based; details: Homo sapiens, 48 h, read-out: Percent Cell Viability of Treated Cell Lines at 1.0 mM, HeLa
Method: as §1, §2, §3, §4

[4] = tested on: MDA-MB-231 (breast); experiment: Cell viability at 1 mM (CellTiter-GLO), MDA-MB-231; format: cell-based; details: Homo sapiens, read-out: Percent Cell Viability of Treated Cell Lines at 1.0 mM, MDA-MB-231
Method: as §1, §2, §3, §4

[5] = tested on: MDA-MB-231-LM24 (metastatic breast); experiment: Cell viability at 1 mM (CellTiter-GLO), MDA-MB-231-LM24; format: cell-based; details: Homo sapiens, read-out: Percent Cell Viability of Treated Cell Lines at 1.0 mM, MDA-MB-231-LM24
Method: as §1, §2, §3, §4

[6] = Cell viability at 1 mM (CellTiter-GLO), MCF10A; format: cell-based; details: human, MCF10A cells (normal breast); 1.0 mM in DMSO, 48 h, MCF10A; read-out: Percent Cell Viability of Treated Cell Lines at 1.0 mM, MCF10A
Method: (§5) Normal breast cell line MCF10A was cultured in DMEM/F12 with 5% horse serum, 20 ng/mL EGF, […], 100 ng/mL cholera toxin, 10 μg/mL insulin, and 1% pen/strep.
(§6) Normal breast cells (MCF10A) were plated in 96-well black plates at a density of 20,000 cells per well (based on the NCI recommendation for adherent cells) in 90 μL volume of DMEM/F12 with 2% horse serum, 0.5 μg/mL hydrocortisone, 100 ng/mL cholera toxin, 10 μg/mL insulin, and 1% pen/strep, and incubated at 37° C. overnight. The compounds were diluted in the media specified above, and 10 μL of this solution was added to each well to give a final concentration of 1 mM (1% overall DMSO, N=4 wells).
as §3, §4

[7] = tested on: MCF10A ("normal" breast); experiment: Cell viability at 1 mM (CellTiter-GLO), MCF10A; format: cell-based; details: non-tumorigenic breast epithelial cell line, 1.0 mM
Method: as §5, §6, §3, §4

[8] = tested on: PC3 (prostate) cancer cell line; experiment: Cell viability assay at three concentrations (FIG. 7), PC3; format: cell-based, human; details: three different concentrations
[9] = tested on: MDA-MB-231 (breast) cancer cell line; experiment: Cell viability assay at three concentrations (FIG. 7), MDA-MB-231; format: cell-based, human; details: three different concentrations
[10] = tested on: MDA-MB-231-LM24; experiment: IC50 experiment (CellTiter-GLO), MDA-MB-231-LM24; format: cell-based, human
Method: as §1
(§7) The compound was diluted in RPMI1640 complete media supplemented with 5% FBS and 50 μg/mL of gentamycin, and 100 μL of this solution was added to each well to give a final concentration of 0.00001-1 mM (N=4 wells). DMSO was held constant at 1%, for all dose points.
as §4, with “Inc.). The IC50 value was determined by Prism GraphPad Software.” for “Inc.).”

[11] = tested on: MCF10A; experiment: IC50 experiment (CellTiter-GLO), MCF10A; format: cell-based; details: Homo sapiens, MCF-10A; 48 h, 1% DMSO; read-out: IC50 against MCF10A
Method: as §5, §7
as §4, with “Inc.). The IC50 value was determined by Prism GraphPad Software.” for “Inc.).”

[12] = tested on: Plasmodium falciparum; details: reported value (ref. 60); read-out: IC50 against the malaria parasite Plasmodium falciparum; cited from earlier work
[13] = tested on: normal human cells; details: reported (ref. 60); cited from earlier work
[14] = HT-29, 1.0 mM in DMSO, 48 h, HT29
[15] = 1.0 mM in DMSO, 48 h, MDA-MB-231
[16] = 1.0 mM in DMSO, 48 h, MDA-MB-231-LM24

| Compound | viability at 1000 µM [1, 14] | viability at 1000 µM ([2]; 1.0 mM in DMSO, PC-3) | viability at 1000 µM ([3]; 1.0 mM in DMSO) | viability at 1000 µM [4, 15] | viability at 1000 µM [5, 16] | viability at 48 h, 1 mM [6] | further results |
| --- | --- | --- | --- | --- | --- | --- | --- |
| O=C1C=CC[C@H]2C=C[C@@H]3CC=CC(=O)[C@H]3[C@H]12 [Compound 13] | 2% | 0% | 4% | 26% | 2% | 1% | activity against MCF10A cell line [7]: highly active |
| CC1=CC[C@H]2C=C[C@@H]3CC=C(C)C(=O)[C@H]3[C@@H]2C1=O [Compound 14] | 1% | 72% | 46% | 69% | 67% |  |  |
| CC1=CC(=O)[C@@H]2[C@H]3C(=O)C=C(C)C[C@@H]3C=C[C@H]2C1 [Compound 15] | 66% | 63% | 40% | 11% | 54% |  |  |
| CC1=CC[C@H]2C=C(C)[C@@H]3CC=C(C)C(=O)[C@H]3[C@@H]2C1=O [Compound 18] |  |  |  |  |  |  | activity in cell viability assay, PC3 [8]: promising activity; activity in cell viability assay, MDA-MB-231 [9]: promising activity |
| CC1=CC[C@H]2C(C)=C[C@@H]3CC=CC(=O)[C@@]3(C)[C@@H]2C1=O [Compound 19] | 1% | 1% | 0% | 0% | 0% |  |  |
| CC1=CC[C@@H]2C(C)=C[C@@]3(C)CC=CC(=O)[C@@H]3[C@H]2C1=O [Compound 20] | 31% | 11% | 2% | 43% | 10% |  |  |
| CC1=CC[C@@H]2C(C)=C[C@@H]3[C@H](C(=O)C=CC3(C)C)[C@H]2C1=O [Compound 21] |  |  |  |  |  | 4% | viability at 1000 µM ([1]; HT-29, 48 h): 0%; viability at 1000 µM [2]: 0%; viability at 1000 µM [3]: 0%; viability at 1000 µM ([4]; MDA-MB-231, 48 h): 0%; viability at 1000 µM ([5]; MDA-MB-231-LM24, 48 h): 0%; activity against MCF10A cell line [7]: highly active |
| CC1=CC[C@H]2C(C)=CCC3(CCC=CC3=O)[C@@H]2C1=O (stereo partly shown) [Compound 24] | 0% | 0% | 3% | 1% | 0% | 4% | activity against MCF10A cell line [7]: highly active; activity in cell viability assay, PC3 [8]: promising activity; activity in cell viability assay, MDA-MB-231 [9]: promising activity |
| O=C1C=CC[C@H]2CC=C[C@@H]3CC=CC(=O)[C@H]3[C@H]12 [Compound 25] | 0% | 0% | 21% | 6% | 1% |  |  |
| C[C@]12CC(=O)C=C[C@@H]1CC=CC2=O [Compound 28] | 0% | 1% | 0% | 2% | 16% |  |  |
| C[C@@]12C=CC(=O)C[C@H]1C(=O)C=CC2 [Compound 29] | 8% | 2% | 22% | 62% | 26% |  |  |
| O=C1C=CC[C@@H]2[C@@H]1[C@@H]1C(=O)C=CC[C@H]1C1O[C@H]12 (stereo partly shown) [Compound 31] | 0% | 0% | 2% | 26% | 3% | 5% | activity against MCF10A cell line [7]: highly active |
| O=C1C2O[C@@H]2C[C@H]2C=C[C@@H]3CC4O[C@H]4C(=O)[C@H]3[C@H]12 (stereo partly shown) [Compound 32] | 1% | 1% | 0% | 25% | 0% | 70% | IC50 ([10]; Homo sapiens, MDA-MB-231-LM24, 48 h, 1% DMSO, read-out: IC50 against MDA-MB-231-LM24): 200 µM; selectivity between cancer versus "normal" cell lines ([10]; MCF10A IC50 versus MDA-MB-231-LM24 IC50): 15 times; IC50 [11]: 3100 µM |
| O=C1CCC[C@H]2CC[C@@H]3CCCC(=O)[C@H]3[C@H]12 [Compound 33] | 51% | 77% | 13% | 75% | 60% |  |  |
| CC1=C[C@@H]2[C@H](C(=O)CCC2(C)C)[C@H]2C(=O)[C@@H](C)CC[C@H]12 [Compound 36] | 64% | 77% | 41% | 53% | 55% |  |  |
| [C-]#[N+][C@]1(C)[C@H](C)C[C@@H]2C[C@H](C)[C@H]3CC[C@](C)([N+]#[C-])[C@H]4CC[C@H]1[C@@H]2[C@H]34 [Compound 39, (+)-7,20-diisocyanoadociane] |  |  |  |  |  |  | IC50 [12]: 0.0047 µM; activity against normal human cells [13]: inert |
